Results on four compounds are retold here after paper PMC7671950 (Cellular and molecular neurobiology, 2020).

For orientation: EC50 means the concentration that produces a half-maximal response. By Emax is commonly meant the size of the effect at its maximum, as opposed to the concentration needed.

Test [1] concerns the target T1, mMOR-1 (Mus musculus, UniProt P42866). The test can be described thus: [35S]GTPγS functional assay. In kind it is biochemical. The note with it: for functional character at MOR-1: [35S]GTPγS functional assays; for Emax: read-out: mMOR-1 Emax; for mMOR-1 Emax: percent maximal stimulation relative to DAMGO at 1000 nM.
Test [2] addresses T2, 6TM/E11 (Mus musculus, UniProt P42866).
Test [3] concerns the target triple knockout mouse brain (Mus musculus, UniProt P42866). The note with it: read-out: Ki Triple KO; values from literature; ref Majumdar et al. 2012; cited from earlier work.
Test [4] deals with T2, 6TM/E11. Conditions: read-out: Ki 6TM/E11; values from literature; ref Majumdar et al. 2012; cited from earlier work.
Test [5] concerns the target mKOR-1 (Mus musculus, UniProt P33534). The note with it: read-out: Ki mKOR-1; values from literature; ref Majumdar et al. 2012; cited from earlier work.
Test [6] concerns the target T1, mMOR-1. Conditions: read-out: Ki mMOR-1; values from literature; ref Majumdar et al. 2012; cited from earlier work.
Test [7] has as its target mDOR-1 (Mus musculus, UniProt P32300). The note with it: read-out: Ki mDOR-1; values from literature; ref Majumdar et al. 2012; cited from earlier work.
The mark [8] stands for this setting: read-out: mMOR-1 EC50, [35S]GTPγS binding, mean ± SEM, 3 replications.

Where two headings read alike, the source gives them in different places.

T2 sequence (P42866 95-386 limits assumed): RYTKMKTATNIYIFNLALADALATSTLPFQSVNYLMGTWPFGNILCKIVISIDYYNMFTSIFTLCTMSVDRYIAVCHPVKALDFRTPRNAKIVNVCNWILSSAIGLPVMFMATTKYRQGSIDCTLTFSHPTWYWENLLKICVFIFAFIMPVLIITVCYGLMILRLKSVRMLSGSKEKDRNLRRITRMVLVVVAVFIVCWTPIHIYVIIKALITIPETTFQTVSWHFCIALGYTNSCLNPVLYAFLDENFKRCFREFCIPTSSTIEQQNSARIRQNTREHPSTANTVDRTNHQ
T1 sequence (P42866 whole entry): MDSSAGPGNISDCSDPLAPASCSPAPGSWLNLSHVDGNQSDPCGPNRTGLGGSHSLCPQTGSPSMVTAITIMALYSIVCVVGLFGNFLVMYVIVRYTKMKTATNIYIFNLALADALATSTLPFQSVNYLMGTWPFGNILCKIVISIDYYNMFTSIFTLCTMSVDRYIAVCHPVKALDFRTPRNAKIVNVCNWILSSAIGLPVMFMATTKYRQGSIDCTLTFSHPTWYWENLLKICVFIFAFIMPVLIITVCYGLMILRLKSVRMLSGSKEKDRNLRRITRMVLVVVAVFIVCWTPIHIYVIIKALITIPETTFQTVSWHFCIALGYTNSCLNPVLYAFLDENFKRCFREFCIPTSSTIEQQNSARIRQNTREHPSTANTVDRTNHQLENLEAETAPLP
Sequence of mKOR-1 (P33534 whole entry): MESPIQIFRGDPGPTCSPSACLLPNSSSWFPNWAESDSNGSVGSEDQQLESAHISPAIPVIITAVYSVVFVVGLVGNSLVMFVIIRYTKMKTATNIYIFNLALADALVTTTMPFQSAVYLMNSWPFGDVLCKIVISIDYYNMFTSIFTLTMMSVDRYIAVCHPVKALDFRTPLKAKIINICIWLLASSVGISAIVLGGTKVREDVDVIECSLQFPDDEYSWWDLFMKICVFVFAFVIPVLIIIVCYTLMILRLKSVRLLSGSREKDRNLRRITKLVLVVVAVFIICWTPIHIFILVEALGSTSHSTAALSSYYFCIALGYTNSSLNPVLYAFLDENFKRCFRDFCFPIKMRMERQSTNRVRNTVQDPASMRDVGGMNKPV
Sequence of mDOR-1 (P32300 whole entry): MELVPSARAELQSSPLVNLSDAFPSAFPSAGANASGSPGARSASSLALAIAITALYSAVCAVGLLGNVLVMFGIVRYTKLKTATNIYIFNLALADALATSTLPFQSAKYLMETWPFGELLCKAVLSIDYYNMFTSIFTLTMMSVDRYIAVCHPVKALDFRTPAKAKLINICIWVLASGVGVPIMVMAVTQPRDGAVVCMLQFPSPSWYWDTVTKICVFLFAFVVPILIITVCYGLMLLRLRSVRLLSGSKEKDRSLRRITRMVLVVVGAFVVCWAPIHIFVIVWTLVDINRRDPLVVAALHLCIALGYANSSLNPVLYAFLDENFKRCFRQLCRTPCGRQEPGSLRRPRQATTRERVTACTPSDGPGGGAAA
Sequence of triple knockout mouse brain (P42866 96-398): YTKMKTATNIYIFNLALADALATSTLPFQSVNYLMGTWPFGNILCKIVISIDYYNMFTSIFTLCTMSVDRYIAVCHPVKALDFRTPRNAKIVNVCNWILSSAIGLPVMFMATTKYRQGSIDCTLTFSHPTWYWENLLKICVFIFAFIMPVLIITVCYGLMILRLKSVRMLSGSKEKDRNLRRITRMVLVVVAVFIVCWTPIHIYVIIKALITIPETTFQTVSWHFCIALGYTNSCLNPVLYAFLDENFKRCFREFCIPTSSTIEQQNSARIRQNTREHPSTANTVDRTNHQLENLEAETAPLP

Regarding `C=CCN1CC[C@]23c4c5ccc(O)c4O[C@H]2[C@H](NC(=O)c2ccc(N=[N+]=[N-])c(I)c2)CC[C@@]3(O)[C@H]1C5` [IBzA 10, N-((4R,4aS,7R,7aR,12bS)-3-Allyl-4a,9-dihydroxy-2,3,4,4a,5,6,7,7a-octahydro-1H-4,12-methanobenzofuro[3,2-e]isoquinolin-7-yl)-4-azido-3-iodobenzamide], in test [1], a half-maximal response (EC50) required 0.86 ± 0.24 nM, the “functional character at MOR-1” value is on record as “full agonists” and the maximum response (Emax) was 122 ± 3%. The Ki in test [2] amounted to 4.64 ± 0.2 nM.
Consider `O=C(N[C@@H]1CC[C@@]2(O)[C@H]3Cc4ccc(O)c5c4[C@@]2(CCN3CC2CC2)[C@H]1O5)c1cccc(I)c1` [IBNtxA, 3’-iodobenzoylnaltrexamide], for which the Ki in test [3] is 0.12 ± 0.04 nM; in test [4], 0.16 ± 0.04 nM; in test [5], 0.03 ± 0.001 nM; in test [6] it was 0.11 ± 0.02 nM; in test [7], 0.24 ± 0.1 nM. Besides, in test [1] (mean ± SEM), the “mMOR-1 Emax” value was found to be 101 ± 3%. The EC50 in test [1] (setting [8]) was 0.49 ± 0.12 nM.
Turning to `C#CCN1CC[C@]23c4c5ccc(O)c4O[C@H]2[C@H](NC(=O)c2ccc(N=[N+]=[N-])c(I)c2)CC[C@@]3(O)[C@H]1C5` [Alkynyl-IBzA 17, 4-Azido-N-((4R,4aS,7R,7aR,12bS)-4a,9-dihydroxy-3-(prop-2-yn-1-yl)-2,3,4,4a,5,6,7,7a-octahydro-1H-4,12-methanobenzofuro[3,2-e]isoquinolin-7-yl)-3-iodobenzamide], in test [1], the EC50 is 1.1 ± 0.1 nM, the “functional character at MOR-1” value was “full agonists” and the Emax was 103 ± 3%. Besides, the Ki in test [2] was found to be 12 ± 1.63 nM.
For `C=CCN1CC[C@]23c4c5ccc(O)c4O[C@H]2[C@H](NC(=O)c2cccc(I)c2)CC[C@@]3(O)[C@H]1C5` [IBNalA], in test [1] (mean ± SEM), the “mMOR-1 Emax” value stood at 75 ± 3.5%. Moreover, the EC50 in test [1] (setting [8]) was found to be 1.4 ± 0.3 nM. In addition, the Ki in test [4] was 0.25 ± 0.12 nM; in test [5], 0.08 ± 0.06 nM; in test [6], 0.22 ± 0.12 nM; in test [7], 2.55 ± 0.18 nM.
